Data as given in the kinase profiling compilation of Christmann-Franck et al. (2016).

Tests used:
Experiment in all cases: KINOMEscan competition binding
Settings in all cases: compound 10.0 µM
CDK13 (human) = CDK13 (human) (UniProt Q14004)
CDK4 CCND3 (human) = CDK4 CCND3 (human) (UniProt P11802+P30281)
CDKL3 (human) = CDKL3 (human) (UniProt Q8IVW4)
CPK1 (P.falciparum) = test system: CPK1 (P.falciparum)
CRK2 (P.falciparum) = CRK2 (P.falciparum) (UniProt P61075)
DDR1 (human) = DDR1 (human) (UniProt Q08345)
DSTYK (human) = DSTYK (human) (UniProt Q6XUX3)
Sequence of DSTYK (human) (Q6XUX3 whole entry, looked up): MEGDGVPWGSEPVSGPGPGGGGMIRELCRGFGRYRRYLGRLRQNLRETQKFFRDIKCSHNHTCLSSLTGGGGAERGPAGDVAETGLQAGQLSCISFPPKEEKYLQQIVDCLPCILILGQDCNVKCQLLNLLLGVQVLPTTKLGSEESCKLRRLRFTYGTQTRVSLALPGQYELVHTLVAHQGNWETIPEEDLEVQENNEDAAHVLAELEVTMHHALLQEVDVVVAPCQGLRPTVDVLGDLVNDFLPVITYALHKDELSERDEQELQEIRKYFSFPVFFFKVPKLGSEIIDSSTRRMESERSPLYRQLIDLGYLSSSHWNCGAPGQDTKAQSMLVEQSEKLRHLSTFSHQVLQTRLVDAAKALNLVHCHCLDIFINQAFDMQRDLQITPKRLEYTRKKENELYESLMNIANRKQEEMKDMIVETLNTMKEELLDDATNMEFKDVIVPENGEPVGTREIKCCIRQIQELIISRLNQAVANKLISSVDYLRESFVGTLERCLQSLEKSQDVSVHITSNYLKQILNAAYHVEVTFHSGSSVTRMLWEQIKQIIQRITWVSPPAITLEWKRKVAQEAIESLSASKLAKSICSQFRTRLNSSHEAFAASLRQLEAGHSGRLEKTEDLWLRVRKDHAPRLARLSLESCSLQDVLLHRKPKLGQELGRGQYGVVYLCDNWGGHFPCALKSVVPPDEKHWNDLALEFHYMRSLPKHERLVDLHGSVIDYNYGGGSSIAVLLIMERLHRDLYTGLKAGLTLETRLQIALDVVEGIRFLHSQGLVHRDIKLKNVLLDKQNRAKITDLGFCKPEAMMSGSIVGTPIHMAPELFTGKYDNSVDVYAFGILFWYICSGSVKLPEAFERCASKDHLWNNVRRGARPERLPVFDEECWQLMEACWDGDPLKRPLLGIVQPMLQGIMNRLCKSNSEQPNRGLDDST

DYRK1A (human) = DYRK1A (human) (UniProt Q13627)
DYRK2 (human) = DYRK2 (human) (UniProt Q92630)
Sequence of DYRK2 (human) (Q92630 whole entry, looked up): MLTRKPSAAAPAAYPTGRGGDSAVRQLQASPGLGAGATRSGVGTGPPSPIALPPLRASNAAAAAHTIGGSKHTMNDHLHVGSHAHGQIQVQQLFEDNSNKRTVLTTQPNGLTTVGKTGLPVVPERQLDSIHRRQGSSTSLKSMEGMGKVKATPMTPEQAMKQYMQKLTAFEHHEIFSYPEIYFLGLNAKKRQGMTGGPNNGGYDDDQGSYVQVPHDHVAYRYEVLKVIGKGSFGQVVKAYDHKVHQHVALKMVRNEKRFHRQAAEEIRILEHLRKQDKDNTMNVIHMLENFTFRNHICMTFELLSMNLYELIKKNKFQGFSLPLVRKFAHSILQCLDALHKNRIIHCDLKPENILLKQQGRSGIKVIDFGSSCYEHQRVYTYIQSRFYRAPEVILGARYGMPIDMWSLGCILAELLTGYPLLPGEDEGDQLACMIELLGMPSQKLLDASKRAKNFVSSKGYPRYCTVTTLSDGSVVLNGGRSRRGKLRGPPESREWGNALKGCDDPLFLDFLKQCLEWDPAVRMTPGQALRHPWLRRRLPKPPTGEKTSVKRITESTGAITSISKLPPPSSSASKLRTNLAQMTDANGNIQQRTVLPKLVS

EGFR (human) = EGFR (human) (UniProt P00533)
[1] = test system: EGFR (human), P00533 [746-750 del]
[2] = test system: EGFR (human), P00533 [G719S]
ERBB3 (human) = ERBB3 (human) (UniProt P21860)
ERN1 (human) = ERN1 (human) (UniProt O75460)
[3] = test system: FLT3 (human), P36888 [K663Q]
GRK7 (human) = GRK7 (human) (UniProt Q8WTQ7)
Sequence of GRK7 (human) (Q8WTQ7 whole entry, looked up): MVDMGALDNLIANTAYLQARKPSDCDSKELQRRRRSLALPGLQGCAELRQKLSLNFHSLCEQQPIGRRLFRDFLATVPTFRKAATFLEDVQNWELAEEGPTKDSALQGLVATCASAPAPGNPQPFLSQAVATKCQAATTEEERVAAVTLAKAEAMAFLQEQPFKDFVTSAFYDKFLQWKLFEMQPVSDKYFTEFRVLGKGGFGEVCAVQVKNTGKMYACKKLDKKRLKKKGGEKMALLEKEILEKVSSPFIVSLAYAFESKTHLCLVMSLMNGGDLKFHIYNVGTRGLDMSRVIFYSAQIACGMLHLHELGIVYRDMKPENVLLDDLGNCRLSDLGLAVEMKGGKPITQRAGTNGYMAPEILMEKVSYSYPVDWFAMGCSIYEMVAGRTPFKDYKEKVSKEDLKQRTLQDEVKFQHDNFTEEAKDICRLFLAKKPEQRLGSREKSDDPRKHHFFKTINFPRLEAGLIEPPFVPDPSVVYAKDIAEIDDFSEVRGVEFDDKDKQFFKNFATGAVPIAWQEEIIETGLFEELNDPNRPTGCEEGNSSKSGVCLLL

HIPK4 (human) = HIPK4 (human) (UniProt Q8NE63)
ICK (human) = ICK (human) (UniProt Q9UPZ9)
KIT (human) = KIT (human) (UniProt P10721)
MAP3K13 (human) = MAP3K13 (human) (UniProt O43283)
MAST1 (human) = MAST1 (human) (UniProt Q9Y2H9)
NEK3 (human) = NEK3 (human) (UniProt P51956)
Sequence of NEK3 (human) (P51956 whole entry, looked up): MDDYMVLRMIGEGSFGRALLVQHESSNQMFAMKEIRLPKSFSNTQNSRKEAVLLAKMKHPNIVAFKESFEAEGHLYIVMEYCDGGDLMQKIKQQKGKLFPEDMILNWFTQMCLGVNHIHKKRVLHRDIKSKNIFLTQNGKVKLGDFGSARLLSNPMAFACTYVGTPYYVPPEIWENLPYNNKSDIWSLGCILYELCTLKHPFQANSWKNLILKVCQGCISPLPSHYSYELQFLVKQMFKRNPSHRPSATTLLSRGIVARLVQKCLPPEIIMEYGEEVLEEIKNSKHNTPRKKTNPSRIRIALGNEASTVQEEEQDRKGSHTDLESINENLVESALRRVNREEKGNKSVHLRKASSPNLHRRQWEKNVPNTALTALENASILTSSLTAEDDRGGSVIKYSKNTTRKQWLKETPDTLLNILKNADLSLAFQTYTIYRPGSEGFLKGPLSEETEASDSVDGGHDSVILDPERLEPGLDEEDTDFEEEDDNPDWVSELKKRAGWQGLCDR

NIM1 (human) = NIM1 (human) (UniProt Q8IY84)
OXSR1 (human) = OXSR1 (human) (UniProt O95747)
PIK3C2G (human) = PIK3C2G (human) (UniProt O75747)
[4] = test system: PIK3CA (human), P42336 [C420R]
[5] = test system: PIK3CA (human), P42336 [E545K]
[6] = test system: PIK3CA (human), P42336 [H1047Y]
[7] = test system: PIK3CA (human), P42336 [Q546K]
Sequence of PIK3CA (human), P42336 [Q546K] (P42336 whole entry Q546K, looked up): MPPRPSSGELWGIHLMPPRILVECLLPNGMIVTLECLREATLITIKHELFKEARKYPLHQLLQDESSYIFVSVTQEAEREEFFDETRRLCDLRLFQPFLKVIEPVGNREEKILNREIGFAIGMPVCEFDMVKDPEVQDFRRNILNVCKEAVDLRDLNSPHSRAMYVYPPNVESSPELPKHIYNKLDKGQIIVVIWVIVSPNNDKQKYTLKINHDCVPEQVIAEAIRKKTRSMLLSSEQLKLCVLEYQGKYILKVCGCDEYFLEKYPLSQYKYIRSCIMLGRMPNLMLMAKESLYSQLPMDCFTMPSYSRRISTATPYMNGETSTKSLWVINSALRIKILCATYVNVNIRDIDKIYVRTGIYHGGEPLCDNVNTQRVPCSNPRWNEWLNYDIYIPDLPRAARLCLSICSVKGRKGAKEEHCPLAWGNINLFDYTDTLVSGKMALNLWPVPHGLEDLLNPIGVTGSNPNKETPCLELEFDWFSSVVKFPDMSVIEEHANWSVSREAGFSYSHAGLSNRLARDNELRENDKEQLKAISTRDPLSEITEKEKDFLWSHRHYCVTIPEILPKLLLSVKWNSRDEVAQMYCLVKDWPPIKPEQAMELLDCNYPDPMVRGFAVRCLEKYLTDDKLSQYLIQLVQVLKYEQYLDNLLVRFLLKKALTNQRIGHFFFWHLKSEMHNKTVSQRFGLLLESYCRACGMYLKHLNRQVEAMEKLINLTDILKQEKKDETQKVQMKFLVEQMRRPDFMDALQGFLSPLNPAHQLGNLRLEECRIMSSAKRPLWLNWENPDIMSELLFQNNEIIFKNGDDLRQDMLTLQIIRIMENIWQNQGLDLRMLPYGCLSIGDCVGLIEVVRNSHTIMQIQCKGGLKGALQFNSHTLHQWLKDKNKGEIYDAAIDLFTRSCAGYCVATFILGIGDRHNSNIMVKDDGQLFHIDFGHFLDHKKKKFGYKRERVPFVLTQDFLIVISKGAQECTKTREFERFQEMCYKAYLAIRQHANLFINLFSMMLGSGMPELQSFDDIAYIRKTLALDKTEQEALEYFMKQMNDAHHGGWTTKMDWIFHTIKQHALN

PIK3CG (human) = PIK3CG (human) (UniProt P48736)
Sequence of PIK3CG (human) (P48736 whole entry, looked up): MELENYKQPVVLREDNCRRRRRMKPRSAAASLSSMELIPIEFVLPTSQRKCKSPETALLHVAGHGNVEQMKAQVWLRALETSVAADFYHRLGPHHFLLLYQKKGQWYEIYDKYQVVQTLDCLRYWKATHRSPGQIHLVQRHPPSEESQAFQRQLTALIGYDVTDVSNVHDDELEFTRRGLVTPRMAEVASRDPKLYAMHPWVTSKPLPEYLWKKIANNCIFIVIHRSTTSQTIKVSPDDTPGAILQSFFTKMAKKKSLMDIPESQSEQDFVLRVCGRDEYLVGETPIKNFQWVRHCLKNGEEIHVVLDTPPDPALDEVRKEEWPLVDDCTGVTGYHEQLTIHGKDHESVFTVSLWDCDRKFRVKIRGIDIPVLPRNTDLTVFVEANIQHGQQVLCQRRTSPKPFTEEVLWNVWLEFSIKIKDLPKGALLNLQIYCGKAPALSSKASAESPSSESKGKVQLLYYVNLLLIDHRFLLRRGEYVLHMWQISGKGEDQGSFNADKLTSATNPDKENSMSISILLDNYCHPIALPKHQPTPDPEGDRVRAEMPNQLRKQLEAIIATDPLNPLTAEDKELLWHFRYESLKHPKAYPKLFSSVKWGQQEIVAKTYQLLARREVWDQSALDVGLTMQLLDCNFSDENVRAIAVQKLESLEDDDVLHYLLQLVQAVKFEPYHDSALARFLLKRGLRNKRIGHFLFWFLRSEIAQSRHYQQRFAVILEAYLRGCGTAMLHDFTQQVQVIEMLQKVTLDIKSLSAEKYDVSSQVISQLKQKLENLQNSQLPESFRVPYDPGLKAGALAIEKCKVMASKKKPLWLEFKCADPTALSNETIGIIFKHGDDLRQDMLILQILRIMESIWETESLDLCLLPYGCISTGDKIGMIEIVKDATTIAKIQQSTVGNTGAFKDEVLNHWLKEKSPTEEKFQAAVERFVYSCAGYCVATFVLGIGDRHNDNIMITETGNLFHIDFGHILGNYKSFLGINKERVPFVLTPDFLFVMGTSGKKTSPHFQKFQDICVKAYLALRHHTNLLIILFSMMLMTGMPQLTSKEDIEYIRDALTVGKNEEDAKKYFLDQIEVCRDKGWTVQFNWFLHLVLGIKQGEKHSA

PIP4K2C (human) = PIP4K2C (human) (UniProt Q8TBX8)
PIP5K1C (human) = PIP5K1C (human) (UniProt O60331)
PRKCI (human) = PRKCI (human) (UniProt P41743)
RPS6KB1 (human) = RPS6KB1 (human) (UniProt P23443)
SBK1 (human) = SBK1 (human) (UniProt Q52WX2)
SGK3 (human) = SGK3 (human) (UniProt Q96BR1)
STK39 (human) = STK39 (human) (UniProt Q9UEW8)
TIE1 (human) = TIE1 (human) (UniProt P35590)
YSK4 (human) = YSK4 (human) (UniProt Q56UN5)

Sequence of CRK2 (P.falciparum) (P61075 whole entry, looked up): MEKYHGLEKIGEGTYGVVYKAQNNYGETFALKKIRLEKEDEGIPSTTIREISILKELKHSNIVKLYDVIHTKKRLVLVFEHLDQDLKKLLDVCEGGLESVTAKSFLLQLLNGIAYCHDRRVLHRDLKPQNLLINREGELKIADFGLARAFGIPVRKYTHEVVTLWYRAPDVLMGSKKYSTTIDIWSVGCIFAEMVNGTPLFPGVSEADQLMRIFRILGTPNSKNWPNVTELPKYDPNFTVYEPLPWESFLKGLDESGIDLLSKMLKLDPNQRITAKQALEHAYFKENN

Q: `O=C(NC1CC1)c1cccc(-c2ccc3c(NC(=O)C4CC4)n[nH]c3c2)c1` was tested. Which kinase still bound, per cent of control (CDK13 (human)) did it give?
A: 82%

Q: What about the kinase still bound, per cent of control (CDK4 CCND3 (human)) of the same compound?
A: 82%

Q: What about the kinase still bound, per cent of control (CDKL3 (human)) of the same compound?
A: 55%

Q: What about the kinase still bound, per cent of control (CPK1 (P.falciparum)) of the same compound?
A: 18%

Q: And the kinase still bound, per cent of control (CRK2 (P.falciparum))?
A: 100%

Q: And the kinase still bound, per cent of control (DDR1 (human))?
A: 71%

Q: What about the kinase still bound, per cent of control (DSTYK (human)) of the same compound?
A: 71%

Q: And the kinase still bound, per cent of control (DYRK1A (human))?
A: 98%

Q: What about the kinase still bound, per cent of control (DYRK2 (human)) of the same compound?
A: 36%

Q: And the kinase still bound, per cent of control (EGFR (human))?
A: 96%

Q: What about the kinase still bound, per cent of control [1] of the same compound?
A: 90%

Q: What about the kinase still bound, per cent of control [2] of the same compound?
A: 85%

Q: What about the kinase still bound, per cent of control (ERBB3 (human)) of the same compound?
A: 69%

Q: And the kinase still bound, per cent of control (ERN1 (human))?
A: 100%

Q: What about the kinase still bound, per cent of control [3] of the same compound?
A: 61%

Q: What about the kinase still bound, per cent of control (GRK7 (human)) of the same compound?
A: 84%

Q: What about the kinase still bound, per cent of control (HIPK4 (human)) of the same compound?
A: 40%

Q: What about the kinase still bound, per cent of control (ICK (human)) of the same compound?
A: 13%

Q: What about the kinase still bound, per cent of control (KIT (human)) of the same compound?
A: 37%

Q: And the kinase still bound, per cent of control (MAP3K13 (human))?
A: 64%

Q: And the kinase still bound, per cent of control (MAST1 (human))?
A: 94%

Q: And the kinase still bound, per cent of control (NEK3 (human))?
A: 75%

Q: What about the kinase still bound, per cent of control (NIM1 (human)) of the same compound?
A: 100%

Q: And the kinase still bound, per cent of control (OXSR1 (human))?
A: 98%

Q: And the kinase still bound, per cent of control (PIK3C2G (human))?
A: 100%

Q: What about the kinase still bound, per cent of control [4] of the same compound?
A: 100%

Q: What about the kinase still bound, per cent of control [5] of the same compound?
A: 95%

Q: What about the kinase still bound, per cent of control [6] of the same compound?
A: 89%

Q: What about the kinase still bound, per cent of control [7] of the same compound?
A: 98%

Q: What about the kinase still bound, per cent of control (PIK3CG (human)) of the same compound?
A: 90%

Q: What about the kinase still bound, per cent of control (PIP4K2C (human)) of the same compound?
A: 95%

Q: What about the kinase still bound, per cent of control (PIP5K1C (human)) of the same compound?
A: 12%

Q: And the kinase still bound, per cent of control (PRKCI (human))?
A: 74%

Q: What about the kinase still bound, per cent of control (RPS6KB1 (human)) of the same compound?
A: 100%

Q: And the kinase still bound, per cent of control (SBK1 (human))?
A: 100%

Q: And the kinase still bound, per cent of control (SGK3 (human))?
A: 42%

Q: And the kinase still bound, per cent of control (STK39 (human))?
A: 99%

Q: What about the kinase still bound, per cent of control (TIE1 (human)) of the same compound?
A: 31%

Q: What about the kinase still bound, per cent of control (YSK4 (human)) of the same compound?
A: 5.9%

Q: Which kinase still bound, per cent of control (CDK13 (human)) does the source give for `CN(C)C/C=C/C(=O)Nc1cccc(Nc2ncc3c(n2)N(C)c2ccccc2C(=O)N3C)c1` here?
A: 96%

Q: What about the kinase still bound, per cent of control (CDK4 CCND3 (human)) of the same compound?
A: 85%

Q: And the kinase still bound, per cent of control (CDKL3 (human))?
A: 100%

Q: And the kinase still bound, per cent of control (CPK1 (P.falciparum))?
A: 74%

Q: What about the kinase still bound, per cent of control (CRK2 (P.falciparum)) of the same compound?
A: 100%

Q: And the kinase still bound, per cent of control (DDR1 (human))?
A: 5.4%

Q: What about the kinase still bound, per cent of control (DSTYK (human)) of the same compound?
A: 18%

Q: And the kinase still bound, per cent of control (DYRK1A (human))?
A: 73%

Q: And the kinase still bound, per cent of control (DYRK2 (human))?
A: 47%

Q: What about the kinase still bound, per cent of control (EGFR (human)) of the same compound?
A: 69%

Q: What about the kinase still bound, per cent of control [1] of the same compound?
A: 90%

Q: What about the kinase still bound, per cent of control [2] of the same compound?
A: 67%

Q: And the kinase still bound, per cent of control (ERBB3 (human))?
A: 89%

Q: What about the kinase still bound, per cent of control (ERN1 (human)) of the same compound?
A: 69%

Q: And the kinase still bound, per cent of control [3]?
A: 37%

Q: What about the kinase still bound, per cent of control (GRK7 (human)) of the same compound?
A: 100%

Q: What about the kinase still bound, per cent of control (HIPK4 (human)) of the same compound?
A: 76%

Q: And the kinase still bound, per cent of control (ICK (human))?
A: 70%

Q: What about the kinase still bound, per cent of control (KIT (human)) of the same compound?
A: 66%

Q: What about the kinase still bound, per cent of control (MAP3K13 (human)) of the same compound?
A: 40%

Q: And the kinase still bound, per cent of control (MAST1 (human))?
A: 100%

Q: What about the kinase still bound, per cent of control (NEK3 (human)) of the same compound?
A: 58%

Q: What about the kinase still bound, per cent of control (NIM1 (human)) of the same compound?
A: 21%

Q: What about the kinase still bound, per cent of control (OXSR1 (human)) of the same compound?
A: 25%

Q: What about the kinase still bound, per cent of control (PIK3C2G (human)) of the same compound?
A: 76%

Q: And the kinase still bound, per cent of control [4]?
A: 72%

Q: What about the kinase still bound, per cent of control [5] of the same compound?
A: 100%

Q: And the kinase still bound, per cent of control [6]?
A: 51%

Q: And the kinase still bound, per cent of control [7]?
A: 30%

Q: And the kinase still bound, per cent of control (PIK3CG (human))?
A: 0%

Q: What about the kinase still bound, per cent of control (PIP4K2C (human)) of the same compound?
A: 6%

Q: What about the kinase still bound, per cent of control (PIP5K1C (human)) of the same compound?
A: 11%

Q: What about the kinase still bound, per cent of control (PRKCI (human)) of the same compound?
A: 97%

Q: And the kinase still bound, per cent of control (RPS6KB1 (human))?
A: 63%

Q: And the kinase still bound, per cent of control (SBK1 (human))?
A: 7.6%

Q: And the kinase still bound, per cent of control (SGK3 (human))?
A: 90%

Q: What about the kinase still bound, per cent of control (STK39 (human)) of the same compound?
A: 100%

Q: And the kinase still bound, per cent of control (TIE1 (human))?
A: 5.4%

Q: What about the kinase still bound, per cent of control (YSK4 (human)) of the same compound?
A: 6.2%

Q: Which results are given for `C=CC(=O)Nc1cccc(Nc2nc(N[C@H]3CC[C@H](N(C)C)CC3)nc3c2ncn3C(C)C)c1`?
A: kinase still bound, per cent of control (CDK13 (human)): 40%; kinase still bound, per cent of control (CDK4 CCND3 (human)): 23%; kinase still bound, per cent of control (CDKL3 (human)): 100%; kinase still bound, per cent of control (CPK1 (P.falciparum)): 98%; kinase still bound, per cent of control (CRK2 (P.falciparum)): 100%; kinase still bound, per cent of control (DDR1 (human)): 100%; kinase still bound, per cent of control (DSTYK (human)): 86%; kinase still bound, per cent of control (DYRK1A (human)): 20%; kinase still bound, per cent of control (DYRK2 (human)): 58%; kinase still bound, per cent of control (EGFR (human)): 100%; kinase still bound, per cent of control [1]: 88%; kinase still bound, per cent of control [2]: 98%; kinase still bound, per cent of control (ERBB3 (human)): 94%; kinase still bound, per cent of control (ERN1 (human)): 96%; kinase still bound, per cent of control [3]: 1.2%; kinase still bound, per cent of control (GRK7 (human)): 8.7%; kinase still bound, per cent of control (HIPK4 (human)): 63%; kinase still bound, per cent of control (ICK (human)): 100%; kinase still bound, per cent of control (KIT (human)): 52%; kinase still bound, per cent of control (MAP3K13 (human)): 79%; kinase still bound, per cent of control (MAST1 (human)): 83%; kinase still bound, per cent of control (NEK3 (human)): 60%; kinase still bound, per cent of control (NIM1 (human)): 66%; kinase still bound, per cent of control (OXSR1 (human)): 33%; kinase still bound, per cent of control (PIK3C2G (human)): 100%; kinase still bound, per cent of control [4]: 89%; kinase still bound, per cent of control [5]: 100%; kinase still bound, per cent of control [6]: 90%; kinase still bound, per cent of control [7]: 100%; kinase still bound, per cent of control (PIK3CG (human)): 100%; kinase still bound, per cent of control (PIP4K2C (human)): 66%; kinase still bound, per cent of control (PIP5K1C (human)): 100%; kinase still bound, per cent of control (PRKCI (human)): 93%; kinase still bound, per cent of control (RPS6KB1 (human)): 87%; kinase still bound, per cent of control (SBK1 (human)): 20%; kinase still bound, per cent of control (SGK3 (human)): 85%; kinase still bound, per cent of control (STK39 (human)): 51%; kinase still bound, per cent of control (TIE1 (human)): 86%; kinase still bound, per cent of control (YSK4 (human)): 15%
